Experimental data from ChEMBL document CHEMBL1201862, “PubChem BioAssay data set” (2004).
The source made the active and inactive calls. No stated cut-off is given here; in the data, actives have a measured IC50 and inactives only a lower limit.

These molecules were tested against Envelope glycoprotein gp160 (Human immunodeficiency virus 1, UniProt Q6QLK5) (assay: inhibitors of HIV fusion peptide binding, primary screen, biochemical, uHTS, fluorescence dequenching (AID 1986)).
Envelope glycoprotein gp160, sequence (Q6QLK5 whole entry, the tested form may be a part): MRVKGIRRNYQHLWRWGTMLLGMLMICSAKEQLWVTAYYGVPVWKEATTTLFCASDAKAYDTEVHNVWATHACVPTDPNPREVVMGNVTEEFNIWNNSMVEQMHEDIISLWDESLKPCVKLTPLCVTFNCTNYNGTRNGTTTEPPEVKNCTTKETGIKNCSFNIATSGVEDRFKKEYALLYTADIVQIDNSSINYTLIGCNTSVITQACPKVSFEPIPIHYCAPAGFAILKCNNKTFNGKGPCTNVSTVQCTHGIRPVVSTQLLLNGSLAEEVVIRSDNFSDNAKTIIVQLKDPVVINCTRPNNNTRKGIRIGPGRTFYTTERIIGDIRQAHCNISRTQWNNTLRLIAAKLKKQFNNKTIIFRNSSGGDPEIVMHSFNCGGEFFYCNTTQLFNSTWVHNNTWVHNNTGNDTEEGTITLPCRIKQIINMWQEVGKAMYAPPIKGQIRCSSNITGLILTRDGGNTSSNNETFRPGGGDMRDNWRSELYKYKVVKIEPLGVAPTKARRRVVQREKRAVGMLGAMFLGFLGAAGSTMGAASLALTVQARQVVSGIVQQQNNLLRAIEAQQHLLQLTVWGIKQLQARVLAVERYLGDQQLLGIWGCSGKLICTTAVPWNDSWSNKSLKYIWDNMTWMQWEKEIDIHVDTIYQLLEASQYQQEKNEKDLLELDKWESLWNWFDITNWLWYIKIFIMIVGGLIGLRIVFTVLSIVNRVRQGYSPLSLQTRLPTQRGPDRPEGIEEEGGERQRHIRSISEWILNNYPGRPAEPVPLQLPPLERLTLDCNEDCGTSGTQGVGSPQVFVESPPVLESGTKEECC
In the case of `Cc1ccc(-c2nc(SCC(=O)Nc3ccccc3OC(F)F)c3c(C)c(C(=O)O)sc3n2)cc1`, the IC50 is reported as 15.1 µM (active). In the case of `C=CC#CC[N+]1(CC#Cc2ccccc2)CCOCC1`, the IC50 is reported as 22.5 µM (active). For `O=C(O)c1cccc(N/N=C/c2cc(Br)cc(Br)c2O)c1`, the IC50 was 17.1 µM (active).
